# Where two headings read alike, the source gives them in different places. Marks after values point to notes of the source that are not given here.
# How the values were obtained:
# [1] = test system: SA-156 (clinical isolate); assay: MIC broth microdilution, SA-156; assay type: cell-based, Staphylococcus aureus
# Description: (§1) The minimum inhibitory concentration (MIC) for each tested compound was determined by the broth microdilution method as recommended by the Clinical and Laboratory Standards Institute (CLSI). In a 96-well plate, eleven two-fold serial dilutions of each compound were made in a final volume of 100 μL Luria Broth. Each well was inoculated with ˜10^5 bacterial cells at the initial time of incubation, prepared from a fresh log phase culture (OD600 of 0.5 to 1.0 depending on bacterial strain). […] (MIC values were supported by spectrophotometric readings at OD600). DMSO served as our vehicle and negative control in each microdilution MIC assay. DMSO was serially diluted with a top concentration of 1% v/v.
# (§2) Each well was inoculated with ˜10^5 bacterial cells at the initial time of incubation, prepared from a fresh log phase culture (OD600 of 0.5 to 1.0 depending on bacterial strain). […] The concentration range tested for each compound during this study was 0.10 to 100 μM. DMSO served as our vehicle and negative control in each microdilution MIC assay. DMSO was serially diluted with a top concentration of 1% v/v. All MIC values were obtained from a minimum of three independent experiments.
# [2] = test system: human red blood cells (hRBC); assay: Hemolysis of red blood cells; assay type: cell-based; conditions: for HC50: Table 1A; for RBC HC50: Table 4, concentration required to lyse 50% of red blood cells
# Procedure, shortened: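 hRBCs (2% suspension) exposed to compounds at 0.2–200 μM (ten-point dose-response) for 1 h at 37 °C; after centrifugation, haemoglobin release read as supernatant OD at 405 nm. DMSO set as 0% and Triton X as 100% haemolysis; HC50 from dose-response curves, three independent experiments.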
# [3] = test system: Acinetobacter baumannii (ATCC 1794); assay: MIC broth microdilution, A. baumannii 1794; assay type: cell-based; conditions: for MIC A. baumannii 1794: Table 1A, in µM; for MIC A. bau. 1794: Table 4
# Procedure, shortened: (§3)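 Growth inhibition is scored visually with OD600 support after 16 to 18 hours at 37° C, the MIC taken as the lowest compound concentration without bacterial growth. Compounds are tested as two-fold dilutions from 0.10 to 100 μM in Luria Broth against ~10^5 log-phase cells per well.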
# [4] = test system: methicillin-resistant Staphylococcus aureus MRSA-2 (clinical isolate); assay: MIC broth microdilution, MRSA-2; assay type: cell-based; conditions: for MIC: read-out: MIC MRSA-2; for MRSA-2 MIC: Table 2A
# Procedure, shortened: as §3
# [5] = test system: methicillin-sensitive Staphylococcus aureus ATCC 29213; assay: MIC broth microdilution, S. aureus 29213; assay type: cell-based
# Procedure, shortened: (§4)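 Log-phase bacteria (~10^5 cells per well) were added to eleven two-fold compound dilutions in Luria Broth, covering 0.10 to 100 μM. Growth inhibition was scored per CLSI broth microdilution, supported by OD600 reads. DMSO, serially diluted from 1% v/v, served as negative control.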
# [6] = test system: SA-138 (clinical isolate); assay: MIC broth microdilution, SA-138; assay type: cell-based, Staphylococcus aureus
# Description: as §1, §2
# [7] = test system: MRSA-1 (clinical isolate); assay: MIC broth microdilution, MRSA-1; assay type: cell-based, Staphylococcus aureus
# Description: as §1, §2
# [8] = test system: vancomycin-resistant Enterococcus faecium (VRE strain ATCC 700221); assay: MIC broth microdilution, VRE 700221; assay type: cell-based; conditions: for MIC E. faecium VRE 700221: Table 1A; for VRE MIC: Table 2A; for MIC VRE 700221: Table 4
# Procedure, shortened: as §3
# [9] = test system: SA-147 (clinical isolate); assay: MIC broth microdilution, SA-147; assay type: cell-based, Staphylococcus aureus
# Description: as §1, §2
# MRSA BAA-1707 = assay: MIC broth microdilution, MRSA BAA-1707; assay type: cell-based, Staphylococcus aureus; conditions: for MIC MRSA 1707: Table 4
# Procedure, shortened: as §4
# MRSA BAA-44 = assay: MIC broth microdilution, MRSA BAA-44; assay type: cell-based, Staphylococcus aureus
# Description: as §1, §2
# [10] = test system: methicillin-resistant Staphylococcus epidermidis (MRSE strain ATCC 35984); assay: MIC broth microdilution, MRSE 35984; assay type: cell-based; conditions: for MIC S. epidermidis MRSE 35984: Table 1A; for MIC MRSE 35984: Table 4
# Procedure, shortened: as §3
# [11] = test system: Pseudomonas aeruginosa (PAO1); assay: MIC broth microdilution, PAO1; assay type: cell-based
# Procedure, shortened: as §3
# [12] = test system: SA-129 (clinical isolate); assay: MIC broth microdilution, SA-129; assay type: cell-based, Staphylococcus aureus
# Description: as §1, §2
# [13] = Table 1B, read-out: MIC MRSA BAA-1707
# [14] = Table 2A, read-out: MRSA BAA-1707 MIC
# [15] = Table 3, read-out: MIC MRSA BAA-1707
structure (smiles),measurement,setting,value
CCCCCCCCCCCCCCCCn1cc(-c2ccccc2)[n+](C)n1.[I-] [Compound 30],MIC SA-156,[1]; Table 1B,2.35^s μM
same,MIC SA-156,[1]; Table 3,2.35^a μM
same,HC50,[2],12.6 µM
same,RBC HC50,[2],12.6 µM
same,MIC A. baumannii 1794,[3],12.5
same,MIC A. bau. 1794,[3],12.5 µM
same,MIC MRSA-2,[4]; Table 1A,3.13 µM
same,MIC,[4]; Table 1B,6.25 µM
same,MRSA-2 MIC,[4],3.13 µM
same,MIC,[4]; Table 3,6.25 µM
same,MIC MRSA-2,[4]; Table 4,3.13 µM
same,MIC,[5]; Table 1B,3.13 µM
same,MIC,[5]; Table 3,3.13 µM
same,MIC SA-138,[6]; Table 1B,2.35^a μM
same,MIC SA-138,[6]; Table 3,2.35^a μM
same,MIC MRSA-1,[7]; Table 1B,4.69^a μM
same,MIC MRSA-1,[7]; Table 3,4.69^a μM
same,MIC E. faecium VRE 700221,[8],3.13 µM
same,VRE MIC,[8],3.13 µM
same,MIC VRE 700221,[8],3.13 µM
same,MIC,[9]; Table 1B,1.56 µM
same,MIC,[9]; Table 3,1.56 µM
same,MIC,MRSA BAA-1707; [13],3.13 µM
same,MIC,MRSA BAA-1707; [14],3.13 µM
same,MIC,MRSA BAA-1707; [15],3.13 µM
same,MIC MRSA 1707,MRSA BAA-1707,3.13 µM
same,MIC MRSA BAA-44,MRSA BAA-44; Table 1B,4.69^a μM
same,MIC MRSA BAA-44,MRSA BAA-44; Table 3,4.69^a μM
same,MIC S. epidermidis MRSE 35984,[10],1.56 µM
same,MIC,"[10]; Table 2A, read-out: MRSE 35984 MIC",1.56 µM
same,MIC MRSE 35984,[10],1.56 µM
same,MIC PAO1,[11]; Table 1A,> 100 µM
same,MIC PAO1,[11]; Table 4,>100 µM
same,MIC,[12]; Table 1B,1.56 µM
same,MIC,[12]; Table 3,1.56 µM
CCCCCCCCCCCCCCCCn1cc[n+](Cc2cccc(F)c2)c1C.[Br-] [Compound 18],MIC,[1]; Table 1B,3.13 µM
same,MIC,[1]; Table 3,3.13 µM
same,HC50,[2],16.7 µM
same,RBC HC50,[2],16.7 µM
same,MIC A. baumannii 1794,[3],25
same,MIC A. bau. 1794,[3],25 µM
same,MIC MRSA-2,[4]; Table 1A,2.35^a
same,MIC MRSA-2,[4]; Table 1B,2.35^a μM
same,MRSA-2 MIC,[4],2.35^a μM
same,MIC MRSA-2,[4]; Table 3,2.35^a μM
same,MIC MRSA-2,[4]; Table 4,2.35a micromolar
same,MIC S. aureus 29213,[5]; Table 1B,4.69^a μM
same,MIC S. aureus 29213,[5]; Table 3,4.69^a μM
same,MIC,[6]; Table 1B,3.13 µM
same,MIC,[6]; Table 3,3.13 µM
same,MIC,[7]; Table 1B,3.13 µM
same,MIC,[7]; Table 3,3.13 µM
same,MIC E. faecium VRE 700221,[8],1.56 µM
same,VRE MIC,[8],1.56 µM
same,MIC VRE 700221,[8],1.56 µM
same,MIC SA-147,[9]; Table 1B,2.35^a μM
same,MIC SA-147,[9]; Table 3,2.35^a μM
same,MIC,MRSA BAA-1707; [13],1.56 µM
same,MIC,MRSA BAA-1707; [14],1.56 µM
same,MIC,MRSA BAA-1707; [15],1.56 µM
same,MIC MRSA 1707,MRSA BAA-1707,1.56 µM
same,MIC MRSA BAA-44,MRSA BAA-44; Table 1B,2.35^a μM
same,MIC MRSA BAA-44,MRSA BAA-44; Table 3,2.35^a μM
same,MIC S. epidermidis MRSE 35984,[10],1.17^a
same,MRSE 35984 MIC,[10]; Table 2A,1.17^a μM
same,MIC MRSE 35984,[10],1.17a micromolar
same,MIC PAO1,[11]; Table 1A,> 100 µM
same,MIC PAO1,[11]; Table 4,>100 µM
same,MIC,[12]; Table 1B,3.13 µM
same,MIC,[12]; Table 3,3.13 µM
